Data published in US20250375440A1, “COMPOSITION AND METHOD OF TREATING CANCER ASSOCIATED WITH EGFR MUTATION” (BEYONDSPRING PHARMACEUTICALS, INC., priority 2018, published 2025).

Tested on: NCI-H1975 Human Lung Cancer Xenograft
Test: subcutaneous NCI-H1975 Human Lung Cancer Xenograft Model in Balb/c Nude Mice, tumor size
Type: in vivo, Mus Musculus (Balb/c nude mice)
Conditions: single agent
Method: The therapeutic efficacy of Osimertinib and Plinabulin were tested in vivo. The two drugs were tested as a single agent and in combination in the treatment of subcutaneous NCI-H1975 Human Lung Cancer Xenograft Model in Balb/c Nude Mice. The administration of the test articles and the animal numbers in each study group were shown in the following experimental design table 1. [table] Study endpoints: The major endpoints of the study include the followings: Tumor growth inhibition (TGI): TGI % was an indication of antitumor effectiveness, and expressed as: TGI (%)=100×(1-T/C). T and C were the mean tumor volume (or weight) of the treated and control groups, respectively, on a given day. The test uses 6-8 weeks female mice (species: Mus Musculus, Strain: Balb/c nude). The average body weight of the mice was 18-22 g. A total of 84 mice (60 plus 40% spare) were used. The animals were housed in individual ventilated cages (up to 5 mice per cage) under the following conditions: Temperature: 20˜26° C.; Humidity: 40-70%; Light cycle: 7:00 am-19:00 pm light and 19:00 pm-7:00 am (next day) darkness; Polysulfone IVC cage: size of 325 mm×210 mm×180 mm; Bedding material: corn cob; Diet: Mouse diet, Co60 irradiation sterilized dry granule food. Animals have free access during the entire study period; Water: Reverse osmosis (RO) water, autoclaved before using. […] The cells growing in an exponential growth phase were harvested and counted for tumor inoculation. […] Group assignment: Before grouping and treatment, all animals were weighed and the tumor volumes were measured using a caliper. […] During routine monitoring, the animals were checked for any effects of tumor growth and treatments on normal behavior such as mobility, visual estimation of food and water consumption, body weight gain/loss (body weights were measured twice per week), eye/hair matting and any other abnormal effect. […]

C=CC(=O)Nc1cc(Nc2nccc(-c3cn(C)c4ccccc34)n2)c(OC)cc1N(C)CCN(C)C [osimertinib, reference compound]
tumor size change after tumor inoculation (Group 2, osimertinib 2.5 mg/kg p.o. QD x 5/wk): control over the tumor size and slight increase in tumor size after the animals were tested for 15 days

CC(C)(C)c1[nH]cnc1/C=c1\[nH]c(=O)/c(=C/c2ccccc2)[nH]c1=O [plinabulin, (3Z,6Z)-3-Benzylidene-6-{[5-(2-methyl-2-propanyl)-1H-imidazol-4-yl]methylene}-2,5-piperazinedione]
tumor size change after tumor inoculation (Group 3, plinabulin 7.5 mg/kg i.p. BIW 2 wks): tumor size increases
tumor size change after tumor inoculation (Group 4, plinabulin 2.5 mg/kg i.p. BIW 2 wks): tumor size increases
